{
  "source": "paper PMC4977052",
  "about": "“On the Utility of ToxCast™ and ToxPi as Methods for Identifying New Obesogens” (Environmental Health Perspectives, 2016)",
  "key": {"PPARγ": {"system": "PPARγ", "details": "ToxCast Phase I 2011 release; NA = not active; ref Knudsen et al. 2011; read-out: ATGT PPARγ AC50; cited from earlier work"}, "C/EBP": {"system": "C/EBP", "set-up": "method as in Knudsen et al. 2011", "details": "ToxCast Phase I 2011 release; NA = not active; ref Knudsen et al. 2011; read-out: ATGC CEBP AC50; cited from earlier work"}, "3T3-L1 preadipocytes": {"system": "3T3-L1 preadipocytes", "assay": "3T3-L1 adipogenesis assay (lipid accumulation, adipogenic gene expression)", "format": "cell-based", "details": "0.02-20 μM, 5 days after MDI induction", "how_it_was_run": "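After 2-day MDI induction with biotin and pantothenate, 3T3-L1 cells were treated 5 days with chemicals at 0.02–20 μM (0.1% DMSO; 10 μM if toxic). Lipid read as Nile red/Hoechst fluorescence ratio; adipogenic genes by QPCR, 2^ΔΔCt versus 36b4, normalized to DMSO.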"}, "RXRα [1]": {"system": "RXRα", "details": "ref Filer et al. 2014, cited from earlier work"}, "RXRα [2]": {"system": "RXRα", "details": "cited from earlier work"}, "PPRE": {"system": "PPRE", "set-up": "method as in Knudsen et al. 2011", "details": "ToxCast Phase I 2011 release; NA = not active; ref Knudsen et al. 2011; read-out: ATGC PPRE AC50; cited from earlier work"}, "GAL4-hRXRα": {"molecular_target": "T1, GAL4-hRXRα (Homo sapiens, UniProt P19793)", "T1 construct": "expressed in transfected cells; host or cells: COS7", "T1 sequence (P19793 with tags, fused parts or gaps limits assumed)": "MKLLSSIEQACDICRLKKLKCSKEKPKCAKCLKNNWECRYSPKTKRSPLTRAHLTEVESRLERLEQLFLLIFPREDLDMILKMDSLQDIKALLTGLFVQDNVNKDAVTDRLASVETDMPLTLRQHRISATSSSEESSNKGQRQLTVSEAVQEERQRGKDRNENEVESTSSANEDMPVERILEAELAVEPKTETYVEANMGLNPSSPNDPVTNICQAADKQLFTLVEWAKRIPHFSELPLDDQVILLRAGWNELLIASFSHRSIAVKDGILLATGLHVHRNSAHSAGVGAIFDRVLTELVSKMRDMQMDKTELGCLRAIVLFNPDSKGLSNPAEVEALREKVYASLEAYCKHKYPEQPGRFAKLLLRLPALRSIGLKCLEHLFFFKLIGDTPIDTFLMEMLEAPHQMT", "assay": "GAL4-hRXRα activation, transient transfection luciferase reporter in COS7 cells", "format": "cell-based", "method": "pCMX-Gal4, pCMX-Gal4-mPPARγ, and pCMX-Gal4-hRXRα were previously described ([Grün et al. 2006]). Transient transfections were performed in COS7 cells as described ([Chamorro-García et al. 2012]). Briefly, COS7 cells were seeded at 15,000 cells per well in 96-well tissue culture plates in 10% calf bovine serum. The following day, cells were transfected in Opti-MEM at ~ 90% confluency. One microgram of CMX-GAL4 effector plasmid was co-transfected with 5 μg tk-(MH100)4-luciferase reporter and 5 μg of CMX-β-galactosidase transfection control plasmids in Opti-MEM® using Lipofectamine® 2000 reagent (Invitrogen™ Life Technologies, Carlsbad, CA, USA), following the manufacturer’s recommended protocol. All chemicals were solvated in dimethyl sulfoxide (DMSO). After overnight incubation, the medium was replaced with Dulbecco’s Modified Eagle Medium (DMEM; HyClone, Logan, UT, USA), 10% resin charcoal stripped fetal bovine serum (FBS) plus ligands at concentrations indicated in the figure legends for an additional 24 hr. DMSO concentration was maintained at 0.05% across all chemical treatments. Cells were lysed and assayed for luciferase and β-galactosidase activity as previously described ([Forman et al. 1995]). All transfections were performed in triplicate and reproduced in multiple experiments. Data are reported as fold induction or reduction over vehicle ([…]) controls ± SEM (standard error of the mean) using standard propagation of error ([Bevington and Robinson 2003]). […] The EC50, EC10, IC50, and IC10 values from NCGC and ToxCast™ are reported from gain AC50 and AC10 values in the ToxCast™ 2014 release ([Filer et al. 2014]).\nFigure 4 ToxPi Chemical Activity on PPARγ and RXRα. The ability of a graded dose series of ToxPi chemicals to activate (A) GAL4-mPPARγ or (B) GAL4-hRXRα was tested in transiently transfected COS7 cells. (A, B) Data points are averages of triplicate transfections (three biological replicates). […] ToxPi chemicals were tested in 3-fold serial dilutions from 100 μM through 0.137 μM, with the final data point being 0.05% DMSO. Data are depicted as fold induction over vehicle (0.05% DMSO) controls ± SEM. (A) Rosiglitazone serves as a positive control activator for GAL4-mPPARγ. (B) LG100268 (2-[1-(3,5,5,8,8-Pentamethyl-5,6,7,8-tetrahydro-2-naphthyl)cyclopropyl]pyridine-5-carboxylic acid) serves as a positive control activator for GAL4-hRXRα. (C) EC50 and EC10 values calculated from A and B are reported and compared to other assays (see Figure S1). ATG, Attagene GAL-PPARγ or GAL-RXRα activation assay; NCGC, GeneBLAzer® GAL-PPARγ or GAL-RXRα activation assays. Triphenyltin was previously published ([Kanayama et al. 2005])."}, "[3]": {"system": "mouse bone marrow-derived mesenchymal stem cells (mBMSCs)", "format": "cell-based", "details": "14 days, Figure 7", "method": "A total of 8 × 10^4 cells/well mouse bone marrow-derived mesenchymal stem cells (mBMSCs) (OriCell™) were seeded in 12-well plates in basic medium: high-glucose DMEM (Hyclone) containing 10% calf bovine serum (Premium Select, Atlanta Biologicals), 100 IU/mL penicillin, 100 μg/mL streptomycin, and 1 mM sodium pyruvate. mBMSCs were induced to differentiate in differentiation media (low glucose αMEM containing 15% fetal bovine serum (Premium Select, Atlanta Biologicals), 100 IU/mL penicillin, 100 μg/mL streptomycin and 2 mM L-glutamine) with adipogenic cocktail (500 μM isometylbutylxanthine, 1 μM dexamethasone, 5 μg/mL insulin) and either 500 nM ROSI, 50 nM TBT or ToxCast™ chemicals (as noted for 3T3-L1 cells) for 14 days, replacing the media every 3 days.\nCells were either fixed in 3.7% formaldehyde in phosphate-buffered saline (PBS) for 30 min at room temperature (RT) for lipid quantitation, or homogenized in TriPure (Roche, Mannheim, Germany) for gene expression analysis. For lipid quantitation, fixed cells were washed twice with PBS and maintained in PBS overnight at 4°C to release residual phenol red. Background of cells were measured prior to staining. Cells were stained with 1 μg/mL Nile red (CAS No. 7385-67-3) (to detect lipid accumulation) and 1 μg/mL Hoechst 33342 (ThermoFisher Scientific) (to detect nuclei as a surrogate for cell number) in PBS for 15 min in the dark at RT and washed twice with PBS. […] Background values of Hoechst and Nile red were subtracted from the RFUs after staining and the ratio RFUNile Red:RFUHoechst was calculated. Data are represented as mean ± SEM. Total RNA was isolated using TriPure (Roche) as recommended by the manufacturer. Reverse transcription and quantitative real-time RT-PCR (QPCR) were performed using Transcriptor RT and SYBR® Green Master Mix (Roche). cDNA was quantitated in a LightCycler® 480 System (Roche Diagnostics, Basel, Switzerland) using primer sets listed in Table S4. Each primer set amplified a single band as determined by gel electrophoresis and melting curve analysis. QPCR data were analyzed using the 2^ΔΔCt method ([Livak and Schmittgen 2001]) relative to ribosomal protein 36b4, normalizing to 0.1% DMSO vehicle. Error bars represent the SEM from four to six biological replicates calculated using standard propagation of error ([Bevington and Robinson 2003])."}},
  "note": "Read-outs that look alike come from different tables or passages of the source.",
  "data": [
    {"smiles": "N#Cc1c[nH]cc1-c1cccc2c1OC(F)(F)O2", "note": "[Fludioxonil]", "values": [
      {"measurement": "AC50", "setting": "PPARγ", "result": 28, "unit": "µM"},
      {"measurement": "AC50", "setting": "C/EBP", "result": 21, "unit": "µM"},
      {"measurement": "Adipogenesis 3T3-L1 (result in words)", "setting": "3T3-L1 preadipocytes", "result": "Positive"},
      {"measurement": "RXRα agonist: EC10, ATG", "setting": "RXRα [1]; AC10, ToxCast 2014 release", "result": 17.93, "unit": "µM"},
      {"measurement": "EC50", "setting": "RXRα [1]; gain AC50, ToxCast 2014 release, read-out: RXRα agonist: EC50, ATG", "result": 23.6, "unit": "µM"},
      {"measurement": "RXRα agonist: EC10, NCGC", "setting": "RXRα [2]; AC10, ToxCast 2014 release, ref Filer et al. 2014", "result": 1.20, "unit": "µM"},
      {"measurement": "AC50", "setting": "RXRα [2]; ToxCast Phase I 2011 release, NA = not active, ref Knudsen et al. 2011, read-out: NCGC RXRα AC50", "result": 2.7, "unit": "µM"},
      {"measurement": "EC50", "setting": "RXRα [2]; gain AC50, ToxCast 2014 release, ref Filer et al. 2014, read-out: RXRα agonist: EC50, NCGC", "result": 2.24, "unit": "µM"},
      {"measurement": "AC50", "setting": "PPRE", "result": 24, "unit": "µM"},
      {"measurement": "Activation of RXRα", "setting": "GAL4-hRXRα; COS7, 100 μM through 0.137 μM", "result": "activated RXRα"},
      {"measurement": "EC50", "setting": "GAL4-hRXRα; COS7, ligands 24 hr, read-out: RXRα agonist: EC50, Fig 4B", "result": 14.3, "unit": "µM"},
      {"measurement": "RXRα agonist: EC10, Fig 4B", "setting": "GAL4-hRXRα; COS7, computed from EC50", "result": 5.42, "unit": "µM"},
      {"measurement": "AC50", "setting": "GAL4-hRXRα; Cos-7 transient transfection", "result": 14.3, "unit": "µM"},
      {"measurement": "Activation COS7 (result in words): RXRα activator", "setting": "GAL4-hRXRα; Cos-7 transient transfection", "result": "RXRα activator"},
      {"measurement": "Adipogenic differentiation of mBMSCs (result in words)", "setting": "[3]", "result": "could differentiate these uncommitted stem cells into adipocytes"}
    ]}
  ]
}
